Source: patent publication US20200223889A1, “Bicyclic Compounds Capable of Binding to Melanocortin 4 Receptor” (Novo Nordisk A/S, priority 2017, published 2020)
Where two headings read alike, the source gives them in different places. Starred links: 1 amine or outer side, 2 acyl side, 3 side chain; linkers in the order of their positions; H or OH if unused. Positions of bridges follow the written chain, without caps; N, C: chain ends. Non-standard residues stand in square brackets, D forms with d. Residues, ends and D or L forms follow the SMILES beside them. Hyp = O=C(O)[C@@H]1C[C@@H](O)CN1; Cit = NC(=O)NCCC[C@H](N)C(=O)O; Thz = O=C(O)[C@@H]1CSCN1; CH2 = C([*:1])[*:2]

Assays:
human MC1R = biological target: T1, human MC1R (Homo sapiens, UniProt Q01726); test: Functional cAMP assay (CisBio HTRF) in BHK cells expressing human MC1R; format: cell-based
T1 construct: expressed in transfected cells
Protocol: In order to assess the potency of the compounds on human MC1R and human MC4R cAMP signalling was measured.
cAMP induction was measured by c-AMPdynamic2 assay, HTRF 62AM4PEC system from CisBio for the human MC1R and human MC4R according to the protocol provided by the vendor. BHK cells expressing the human MC1 or MC4 receptor were generated by stable transfection with expression vectors encoding the cDNA of either MC1R or MC4R.
In details; 25 μl compound—or standard solution were added in the respective wells. Compound was reconstituted in buffer (DMEM w/o phenol red, 10 mM
Hepes, lx Glutamine, 0.1% OV-albumin1, 1 mM IBMX) and serially diluted starting at 2 μM, 10-fold seven times. Dilutions were carried out in the same aforementioned buffer to the desired working concentration ranges (2× higher than the final concentration). 25 μl cell solution was then added and allowed to incubate for 30 min while lightly shaking, at 25° C. […] The provided components for the assay were reconstituted according to the CisBio assay protocol “3.1 supplied reagents and preparation procedure” in MilliQ purification system H2O and diluted 1:20 in lysis buffer. 25 μl cAMP-d2 and 25 μl Cryptate conjugate were added to all wells.
Plates were centrifuged at 1500 rpm for 30 sec and incubated for 1 h, lightly shaking, at 25° C. in a hotel stacker. The plates were read on Mithras LB 940 provided by Berthold Technologies The data were analysed by non-linear regression analysis of binding curves, using the Windows™ program GraphPad™ Prism (GraphPad Software, USA).
The latter is used when no full curve can be obtained in the concentration ranges indicated above.

human MC4R [1] = biological target: T2, human MC4R (Homo sapiens, UniProt P32245); test: Functional cAMP assay (CisBio HTRF) in BHK cells expressing human MC4R; format: cell-based; settings: for MC1R/MC4R cAMP EC50 ratio: MC1R cAMP EC50 divided by MC4R cAMP EC50
T2 construct: expressed in transfected cells
Summary of the method: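 Stably transfected BHK cells expressing human MC1R or MC4R; cAMP quantified by HTRF (cAMP-d2/cryptate) after 30 min compound stimulation at 25 °C in DMEM-based buffer with 1 mM IBMX. Compounds were prepared as 10-fold serial dilutions starting at 2 μM (working solution, 2× final). Readout after 1 h at 25 °C; non-linear regression.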

human MC4R [2] = biological target: T2, human MC4R; test: 125NDP-α-MSH competitive binding to membranes of BHK cells expressing human MC4 receptor (filtration assay)
Summary of the method: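 Displacement of ^125NDP-α-MSH (apx. […] final) was measured by filtration after 2 h at 25 °C, using diluted membranes of stably transfected BHK cells in pH 7.0 HEPES buffer. Compounds spanned 1 μM to 0.001 nM; binding curves were analysed by non-linear regression.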

[3] = BHK cells expressing human MC1R, '>' = highest dose used with no response, read-out: MC1R cAMP EC50
[4] = BHK cells expressing human MC4R, '>' = highest dose used with no response, read-out: MC4R cAMP EC50
[5] = human MC4R, BHK cell membranes, 125NDP-α-MSH radioligand, read-out: MC4R binding Ki

T1 sequence (Q01726 whole entry): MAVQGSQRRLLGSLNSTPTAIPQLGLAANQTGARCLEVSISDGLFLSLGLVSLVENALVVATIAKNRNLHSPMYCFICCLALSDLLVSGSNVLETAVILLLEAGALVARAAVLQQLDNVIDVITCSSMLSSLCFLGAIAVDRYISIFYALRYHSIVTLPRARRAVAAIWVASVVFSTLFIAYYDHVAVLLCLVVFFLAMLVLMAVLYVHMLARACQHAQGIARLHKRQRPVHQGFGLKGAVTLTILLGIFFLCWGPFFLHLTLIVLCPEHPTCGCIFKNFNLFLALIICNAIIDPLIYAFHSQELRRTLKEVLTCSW
T2 sequence (P32245 whole entry): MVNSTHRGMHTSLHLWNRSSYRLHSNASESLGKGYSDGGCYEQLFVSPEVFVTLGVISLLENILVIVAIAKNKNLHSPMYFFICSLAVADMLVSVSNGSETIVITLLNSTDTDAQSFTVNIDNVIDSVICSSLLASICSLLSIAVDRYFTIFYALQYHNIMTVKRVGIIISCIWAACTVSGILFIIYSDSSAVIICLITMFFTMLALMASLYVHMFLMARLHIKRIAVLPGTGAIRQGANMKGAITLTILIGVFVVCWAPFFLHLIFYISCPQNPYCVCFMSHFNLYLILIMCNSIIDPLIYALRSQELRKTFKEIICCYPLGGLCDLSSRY

| SMILES | EC50 (human MC1R; [3]) | MC1R/MC4R cAMP EC50 ratio (human MC4R [1]) | EC50 (human MC4R [1]; [4]) | further results |
| --- | --- | --- | --- | --- |
| C[C@@H]1NC(=O)[C@@H]2CSSC[C@H](NC(=O)[C@H](Cc3c[nH]c4ccccc34)NC(=O)[C@H](CCCNC(=N)N)NC(=O)[C@@H](Cc3ccccc3)NC(=O)[C@@H]3C[C@@H](O)CN3C1=O)C(=O)N[C@@H](C)C(=O)N1C[C@H](O)C[C@H]1C(=O)N[C@H](Cc1ccccc1)C(=O)N[C@@H](CCCNC(=N)N)C(=O)N[C@@H](Cc1c[nH]c3ccccc13)C(=O)N2 [Chem. 14, c[c[Cys-Ala-Hyp-D-Phe-Arg-Trp- Cys]-Ala-Hyp-D-Phe-Arg-Trp]] (cyclo(A[Hyp][dF]RWCA[Hyp][dF]RWC); disulfide 6-12) | > 10 nM | >3 | – | – |
| C[C@@H]1NC(=O)[C@@H]2CSSC[C@H](NC(=O)[C@H](Cc3c[nH]c4ccccc34)NC(=O)[C@H](CCCN)NC(=O)[C@@H](Cc3ccccc3)NC(=O)[C@H](Cc3c[nH]cn3)NC1=O)C(=O)N[C@@H](C)C(=O)N[C@@H](Cc1c[nH]cn1)C(=O)N[C@H](Cc1ccccc1)C(=O)N[C@@H](CCCN)C(=O)N[C@@H](Cc1c[nH]c3ccccc13)C(=O)N2 [Chem. 16, c[c[Cys-Ala-His-D-Phe-Orn-Trp-Cys]- Ala-His-D-Phe-Orn-Trp]] | > 1 nM | >5 | 0.21 nM | – |
| C[C@@H]1NC(=O)[C@@H]2CSSC[C@H](NC(=O)[C@H](Cc3c[nH]c4ccccc34)NC(=O)[C@H](CCCNC(N)=O)NC(=O)[C@@H](Cc3ccccc3)NC(=O)[C@H](Cc3c[nH]cn3)NC1=O)C(=O)N[C@@H](C)C(=O)N[C@@H](Cc1c[nH]cn1)C(=O)N[C@H](Cc1ccccc1)C(=O)N[C@@H](CCCNC(N)=O)C(=O)N[C@@H](Cc1c[nH]c3ccccc13)C(=O)N2 [Chem. 19, c[c[Cys-Ala-His-D-Phe-Cit-Trp-Cys]- Ala-His-D-Phe-Cit-Trp]] | > 1 nM | >8 | 0.13 nM | – |
| C[C@@H]1NC(=O)[C@@H]2CSCSC[C@H](NC(=O)[C@H](Cc3c[nH]c4ccccc34)NC(=O)[C@H](CCCNC(=N)N)NC(=O)[C@@H](Cc3ccccc3)NC(=O)[C@@H]3C[C@@H](O)CN3C1=O)C(=O)N[C@@H](C)C(=O)N1C[C@H](O)C[C@H]1C(=O)N[C@H](Cc1ccccc1)C(=O)N[C@@H](CCCNC(=N)N)C(=O)N[C@@H](Cc1c[nH]c3ccccc13)C(=O)N2 [Chem. 23, c[c[Cys-Ala-Hyp-D-Phe-Arg-Trp- Cys]-Ala-Hyp-D-Phe-Arg-Trp]] (cyclo(A[Hyp][dF]RWCA[Hyp][dF]RWC); linker 6-12 via CH2) | > 10 nM | >3 | – | – |
| N=C(N)NCCC[C@@H]1NC(=O)[C@@H](Cc2ccccc2)NC(=O)[C@@H]2C[C@@H](O)CN2C(=O)[C@@H]2CSSC[C@H](NC(=O)[C@H](Cc3c[nH]c4ccccc34)NC1=O)C(=O)N1C[C@H](O)C[C@H]1C(=O)N[C@H](Cc1ccccc1)C(=O)N[C@@H](CCCNC(=N)N)C(=O)N[C@@H](Cc1c[nH]c3ccccc13)C(=O)N2 [Chem. 27, c[c[Cys-Hyp-D-Phe-Arg-Trp-Cys]- Hyp-D-Phe-Arg-Trp]] (cyclo(C[Hyp][dF]RWC[Hyp][dF]RW); disulfide 1-6) | 50.9 nM | 212 | 0.24 nM | – |
| N=C(N)NCCC[C@@H]1NC(=O)[C@@H](Cc2ccccc2)NC(=O)[C@H](Cc2c[nH]cn2)NC(=O)[C@@H]2CSSC[C@H](NC(=O)[C@H](Cc3c[nH]c4ccccc34)NC1=O)C(=O)N[C@@H](Cc1c[nH]cn1)C(=O)N[C@H](Cc1ccccc1)C(=O)N[C@@H](CCCNC(=N)N)C(=O)N[C@@H](Cc1c[nH]c3ccccc13)C(=O)N2 [Chem. 49, c[c[Cys-His-D-Phe-Arg-Trp-Cys]-His- D-Phe-Arg-Trp]] (cyclo(CH[dF]RWCH[dF]RW); disulfide 1-6) | – | >4 | – | EC50 (human MC1R): > 5.5 nM |
| O=C(O)CC[C@@H]1NC(=O)[C@@H]2CSSC[C@H](NC(=O)[C@H](Cc3c[nH]c4ccccc34)NC(=O)[C@H](Cc3c[nH]cn3)NC(=O)[C@@H](Cc3ccccc3)NC(=O)[C@H](Cc3c[nH]cn3)NC1=O)C(=O)N[C@@H](CCC(=O)O)C(=O)N[C@@H](Cc1c[nH]cn1)C(=O)N[C@H](Cc1ccccc1)C(=O)N[C@@H](Cc1c[nH]cn1)C(=O)N[C@@H](Cc1c[nH]c3ccccc13)C(=O)N2 [Chem. 53, c[c[Cys-Glu-His-D-Phe-His-Trp-Cys]- Glu-His-D-Phe-His-Trp]] (cyclo(CEH[dF]HWCEH[dF]HW); disulfide 1-7) | > 10 nM | >1 | – | – |
| C[C@@H]1NC(=O)[C@@H]2CSSC[C@H](NC(=O)[C@H](CCCNC(=N)N)NC(=O)[C@H](CCCCN)NC(=O)[C@H](CCCCN)NC(=O)[C@H](CCCCN)NC1=O)C(=O)N1CSC[C@H]1C(=O)N[C@@H](Cc1c[nH]cn1)C(=O)N[C@H](Cc1ccccc1)C(=O)N[C@@H](Cc1c[nH]cn1)C(=O)N[C@@H](Cc1c[nH]c3ccccc13)C(=O)N2 [Chem. 100, c[c[Cys-THAZ-His-D-Phe-His-Trp- Cys]-Ala-Lys-Lys-Lys-Arg]] (cyclo(AKKKRC[Thz]H[dF]HWC); disulfide 6-12) | – | 925 | – | Ki (human MC4R [2]): 0.04 nM; EC50 (human MC4R [1]): 0.02 nM |

Now from value to compound, other results behind:

| EC50 (human MC1R; [3]) | MC1R/MC4R cAMP EC50 ratio (human MC4R [1]) | EC50 (human MC4R [1]; [4]) | SMILES | further results |
| --- | --- | --- | --- | --- |
| > 100 nM | – | – | C[C@@H]1NC(=O)[C@@H]2CSSC[C@H](NC(=O)[C@H](Cc3c[nH]c4ccccc34)NC(=O)[C@@H]3C[C@@H](NC(=N)N)CN3C(=O)[C@@H](Cc3ccccc3)NC(=O)[C@H](Cc3c[nH]cn3)NC1=O)C(=O)N[C@@H](C)C(=O)N[C@@H](Cc1c[nH]cn1)C(=O)N[C@H](Cc1ccccc1)C(=O)N1C[C@H](NC(=N)N)C[C@H]1C(=O)N[C@@H](Cc1c[nH]c3ccccc13)C(=O)N2 [Chem. 28, c[c[Cys-Ala-His-D-Phe-4trans- GuaPro-Trp-Cys]-Ala-His-D-Phe- 4trans-GuaPro-Trp]] | – |
| > 100 nM | – | – | C[C@@H]1NC(=O)[C@@H]2CSSC[C@H](NC(=O)[C@H](Cc3c[nH]c4ccccc34)NC(=O)[C@@H]3C[C@H](NC(=N)N)CN3C(=O)[C@@H](Cc3ccccc3)NC(=O)[C@H](Cc3c[nH]cn3)NC1=O)C(=O)N[C@@H](C)C(=O)N[C@@H](Cc1c[nH]cn1)C(=O)N[C@H](Cc1ccccc1)C(=O)N1C[C@@H](NC(=N)N)C[C@H]1C(=O)N[C@@H](Cc1c[nH]c3ccccc13)C(=O)N2 [Chem. 29, c[c[Cys-Ala-His-D-Phe-4cis-GuaPro- Trp-Cys]-Ala-His-D-Phe-4cis-GuaPro- Trp]] | – |
| > 100 nM | >2 | – | C[C@@H]1NC(=O)[C@@H]2CSSC[C@H](NC(=O)[C@H](Cc3c[nH]c4ccccc34)NC(=O)[C@H](CCCNC(N)=O)NC(=O)[C@@H](Cc3ccccc3)NC(=O)[C@H](Cc3c[nH]cn3)NC1=O)C(=O)N[C@@H](C)C(=O)N[C@@H](CCC(=O)O)C(=O)N[C@@H](CCC(=O)O)C(=O)N[C@@H](CCC(=O)O)C(=O)N[C@@H](Cc1c[nH]c3ccccc13)C(=O)N2 [Chem. 45, c[c[Cys-Ala-His-D-Phe-Cit-Trp-Cys]- Ala-Glu-Glu-Glu-Trp]] (cyclo(AEEEWCAH[dF][Cit]WC); disulfide 6-12) | – |
| – | 399 | 0.22 nM | C[C@@H]1NC(=O)[C@@H]2CSSC[C@H](NC(=O)[C@H](CCCNC(=N)N)NC(=O)[C@H](Cc3c[nH]cn3)NC(=O)[C@H](CCCCN)NC(=O)[C@H](CCCCN)NC1=O)C(=O)N1CCC[C@H]1C(=O)N[C@@H](Cc1c[nH]cn1)C(=O)N[C@H](Cc1ccccc1)C(=O)N[C@@H](Cc1c[nH]cn1)C(=O)N[C@@H](Cc1c[nH]c3ccccc13)C(=O)N2 [Chem. 95, c[c[Cys-Pro-His-D-Phe-His-Trp-Cys]- Ala-Lys-Lys-His-Arg]] (cyclo(AKKHRCPH[dF]HWC); disulfide 6-12) | Ki (human MC4R [2]; [5]): 0.07 nM |
| – | 122 | 0.19 nM | C[C@@H]1NC(=O)[C@@H]2CSSC[C@H](NC(=O)[C@H](CCCNC(=N)N)NC(=O)[C@H](CCCCN)NC(=O)[C@H](CCCCN)NC(=O)[C@H](CCCCN)NC1=O)C(=O)N1C[C@H](O)C[C@H]1C(=O)N[C@@H](Cc1c[nH]cn1)C(=O)N[C@H](Cc1ccccc1)C(=O)N[C@@H](Cc1c[nH]cn1)C(=O)N[C@@H](Cc1c[nH]c3ccccc13)C(=O)N2 [Chem. 97, c[c[Cys-Hyp-His-D-Phe-His-Trp-Cys]- Ala-Lys-Lys-Lys-Arg]] (cyclo(AKKKRC[Hyp]H[dF]HWC); disulfide 6-12) | Ki (human MC4R [2]; [5]): 0.05 nM |
